Measurements: ChEMBL document CHEMBL5500363, “Discovery of novel ocotillol derivatives modulating glucocorticoid receptor/NF-κB signaling for the treatment of sepsis” (Eur J Med Chem, 2024)

Assays:
[1] = Cytotoxicity against mouse RAW264.7 cells assessed as cell viability at 40 uM incubated for 24 hrs by MTT assay relative to control; format: toxicity, cell-based; conditions: read-out: Activity
RAW264.7 [2] = assay: Inhibition of LPS-induced NO production in mouse RAW264.7 cells at 5 uM pretreated for 2 hrs followed by LPS stimulation for 24 hrs by Griess assay relative to control; format: functional; conditions: time 26 hrs
RAW264.7 [3] = assay: Inhibition of LPS-induced NO production in mouse RAW264.7 cells at 10 uM pretreated for 2 hrs followed by LPS stimulation for 24 hrs by Griess assay relative to control; format: functional; conditions: time 26 hrs
RAW264.7 [4] = assay: Inhibition of LPS-induced NO production in mouse RAW264.7 cells at 20 uM pretreated for 2 hrs followed by LPS stimulation for 24 hrs by Griess assay relative to control; format: functional; conditions: time 26 hrs
RAW264.7 [5] = assay: Inhibition of LPS-induced NO production in mouse RAW264.7 cells pretreated for 2 hrs followed by LPS stimulation for 24 hrs by Griess assay; format: functional, cell-based
RAW264.7 [6] = assay: Cytotoxicity against mouse RAW264.7 cells assessed as cell viability at 40 uM incubated for 24 hrs by MTT assay; format: toxicity, cell-based; conditions: raw264.7, 24 h

CC(C)(C)OC(=O)CC(=O)Nc1nc2c(s1)C[C@]1(C)[C@H]3C[C@@H](O)[C@@H]4C([C@]5(C)CC[C@H](C(C)(C)O)O5)CC[C@@]4(C)[C@]3(C)CC[C@H]1C2(C)C (some centres undefined)
viability at 24 h, 40 µM [1]: > 90%
inhibition at 5 µM (RAW264.7 [2]): 14.3%
inhibition at 10 µM (RAW264.7 [3]): 29.8%
inhibition at 20 µM (RAW264.7 [4]): 50%
IC50 (RAW264.7 [5]): 17.5 µM

CC(C)(O)[C@H]1CC[C@@](C)(C2CC[C@]3(C)[C@@H]2[C@H](O)C[C@@H]2[C@@]4(C)Cc5sc(NC(=O)C(F)(F)F)nc5C(C)(C)[C@@H]4CC[C@]23C)O1 (some centres undefined)
Activity (RAW264.7 [6]): Toxic

CC(C)(O)[C@H]1CC[C@@](C)(C2CC[C@]3(C)[C@@H]2[C@H](O)C[C@@H]2[C@@]4(C)CC[C@H](OC(=O)CCC(=O)Nc5nnc(Cl)s5)C(C)(C)[C@@H]4CC[C@]23C)O1 (some centres undefined)
viability at 24 h, 40 µM [1]: > 90%
inhibition at 5 µM (RAW264.7 [2]): 28.6%
inhibition at 10 µM (RAW264.7 [3]): 47.3%
inhibition at 20 µM (RAW264.7 [4]): 57.9%
IC50 (RAW264.7 [5]): 11.4 µM

CC(C)(C)OC(=O)NCCCCCC(=O)Nc1nc2c(s1)C[C@]1(C)[C@H]3C[C@@H](O)[C@@H]4C([C@]5(C)CC[C@@H](C(C)(C)O)O5)CC[C@@]4(C)[C@]3(C)CC[C@H]1C2(C)C (some centres undefined)
viability at 24 h, 40 µM [1]: > 90%
inhibition at 5 µM (RAW264.7 [2]): 27.4%
inhibition at 10 µM (RAW264.7 [3]): 43.6%
inhibition at 20 µM (RAW264.7 [4]): 48.5%
IC50 (RAW264.7 [5]): 24.5 µM

CC(C)(C)OC(=O)CCCC(=O)Nc1nc2c(s1)C[C@]1(C)[C@H]3C[C@@H](O)[C@@H]4C([C@]5(C)CC[C@H](C(C)(C)O)O5)CC[C@@]4(C)[C@]3(C)CC[C@H]1C2(C)C (some centres undefined)
viability at 24 h, 40 µM [1]: > 90%
inhibition at 5 µM (RAW264.7 [2]): 14.2%
inhibition at 10 µM (RAW264.7 [3]): 13.3%
inhibition at 20 µM (RAW264.7 [4]): 18.1%
IC50 (RAW264.7 [5]): 52 µM

CC(C)(O)[C@@H]1CC[C@@](C)(C2CC[C@]3(C)[C@@H]2[C@H](O)C[C@@H]2[C@@]4(C)Cc5sc(NC(=O)OC(F)(F)F)nc5C(C)(C)[C@@H]4CC[C@]23C)O1 (some centres undefined)
viability at 24 h, 40 µM [1]: > 90%
inhibition at 5 µM (RAW264.7 [2]): 6.07%
inhibition at 10 µM (RAW264.7 [3]): 6.84%
inhibition at 20 µM (RAW264.7 [4]): 22.2%
IC50 (RAW264.7 [5]): 41.6 µM

CC(C)(C)OC(=O)NCCCCCCCCCCC(=O)Nc1nc2c(s1)C[C@]1(C)[C@H]3C[C@@H](O)[C@@H]4C([C@]5(C)CC[C@@H](C(C)(C)O)O5)CC[C@@]4(C)[C@]3(C)CC[C@H]1C2(C)C (some centres undefined)
viability at 24 h, 40 µM [1]: > 90%
inhibition at 5 µM (RAW264.7 [2]): 1.99%
inhibition at 10 µM (RAW264.7 [3]): 6.18%
inhibition at 20 µM (RAW264.7 [4]): 17.1%
IC50 (RAW264.7 [5]): 50.6 µM

CC(=O)Nc1nc2c(s1)C[C@]1(C)[C@H]3C[C@@H](O)[C@@H]4C([C@]5(C)CC[C@@H](C(C)(C)O)O5)CC[C@@]4(C)[C@]3(C)CC[C@H]1C2(C)C (some centres undefined)
Activity (RAW264.7 [6]): Toxic

CC(C)(C)OC(=O)CCC(=O)Nc1nc2c(s1)C[C@]1(C)[C@H]3C[C@@H](O)[C@@H]4C([C@]5(C)CC[C@H](C(C)(C)O)O5)CC[C@@]4(C)[C@]3(C)CC[C@H]1C2(C)C (some centres undefined)
viability at 24 h, 40 µM [1]: > 90%
inhibition at 5 µM (RAW264.7 [2]): 11.1%
inhibition at 10 µM (RAW264.7 [3]): 22.5%
inhibition at 20 µM (RAW264.7 [4]): 39.1%
IC50 (RAW264.7 [5]): 16.5 µM

CC(=O)Nc1nc2c(s1)C[C@]1(C)[C@H]3C[C@@H](O)[C@@H]4C([C@]5(C)CC[C@H](C(C)(C)O)O5)CC[C@@]4(C)[C@]3(C)CC[C@H]1C2(C)C (some centres undefined)
Activity (RAW264.7 [6]): Toxic

CC(C)(O)[C@@H]1CC[C@@](C)(C2CC[C@]3(C)[C@@H]2[C@H](O)C[C@@H]2[C@@]4(C)CC[C@H](OC(=O)CCC(=O)Nc5nnc(Br)s5)C(C)(C)[C@@H]4CC[C@]23C)O1 (some centres undefined)
viability at 24 h, 40 µM [1]: > 90%
inhibition at 5 µM (RAW264.7 [2]): 34.8%
inhibition at 10 µM (RAW264.7 [3]): 47%
inhibition at 20 µM (RAW264.7 [4]): 70.2%
IC50 (RAW264.7 [5]): 10.3 µM

CC(C)(O)[C@H]1CC[C@@](C)(C2CC[C@]3(C)[C@@H]2[C@H](O)C[C@@H]2[C@@]4(C)CC[C@H](OC(=O)CCC(=O)Nc5nncs5)C(C)(C)[C@@H]4CC[C@]23C)O1 (some centres undefined)
viability at 24 h, 40 µM [1]: > 90%
inhibition at 5 µM (RAW264.7 [2]): 10.8%
inhibition at 10 µM (RAW264.7 [3]): 18.5%
inhibition at 20 µM (RAW264.7 [4]): 35.7%
IC50 (RAW264.7 [5]): 40.3 µM

CC(C)(O)[C@@H]1CC[C@@](C)(C2CC[C@]3(C)[C@@H]2[C@H](O)C[C@@H]2[C@@]4(C)Cc5sc(NC(=O)C(F)(F)F)nc5C(C)(C)[C@@H]4CC[C@]23C)O1 (some centres undefined)
viability at 24 h, 40 µM [1]: > 90%
inhibition at 5 µM (RAW264.7 [2]): 14.2%
inhibition at 10 µM (RAW264.7 [3]): 20.6%
inhibition at 20 µM (RAW264.7 [4]): 30.9%
IC50 (RAW264.7 [5]): 25.7 µM

CC(C)(C)OC(=O)NCCCC(=O)Nc1nc2c(s1)C[C@]1(C)[C@H]3C[C@@H](O)[C@@H]4C([C@]5(C)CC[C@@H](C(C)(C)O)O5)CC[C@@]4(C)[C@]3(C)CC[C@H]1C2(C)C (some centres undefined)
Activity (RAW264.7 [6]): Toxic

CC(C)(O)[C@@H]1CC[C@@](C)(C2CC[C@]3(C)[C@@H]2[C@H](O)C[C@@H]2[C@@]4(C)Cc5sc(N)nc5C(C)(C)[C@@H]4CC[C@]23C)O1 (some centres undefined)
viability at 24 h, 40 µM [1]: > 90%
inhibition at 5 µM (RAW264.7 [2]): 11.4%
inhibition at 10 µM (RAW264.7 [3]): 23.5%
inhibition at 20 µM (RAW264.7 [4]): 36.6%
IC50 (RAW264.7 [5]): 26.1 µM

CC(C)(C)OC(=O)NCCCCCCCC(=O)Nc1nc2c(s1)C[C@]1(C)[C@H]3C[C@@H](O)[C@@H]4C([C@]5(C)CC[C@H](C(C)(C)O)O5)CC[C@@]4(C)[C@]3(C)CC[C@H]1C2(C)C (some centres undefined)
Activity (RAW264.7 [6]): Toxic

CC(C)(O)[C@@H]1CC[C@@](C)(C2CC[C@]3(C)[C@@H]2[C@H](O)C[C@@H]2[C@@]4(C)CC[C@H](OC(=O)CCC(=O)Nc5nncs5)C(C)(C)[C@@H]4CC[C@]23C)O1 (some centres undefined)
viability at 24 h, 40 µM [1]: > 90%
inhibition at 5 µM (RAW264.7 [2]): 7.78%
inhibition at 10 µM (RAW264.7 [3]): 21.3%
inhibition at 20 µM (RAW264.7 [4]): 58.6%
IC50 (RAW264.7 [5]): 17.9 µM

CC(C)(O)[C@H]1CC[C@@](C)(C2CC[C@]3(C)[C@@H]2[C@H](O)C[C@@H]2[C@@]4(C)Cc5sc(N)nc5C(C)(C)[C@@H]4CC[C@]23C)O1 (some centres undefined)
viability at 24 h, 40 µM [1]: > 90%
inhibition at 5 µM (RAW264.7 [2]): 19%
inhibition at 10 µM (RAW264.7 [3]): 23.9%
inhibition at 20 µM (RAW264.7 [4]): 37.7%
IC50 (RAW264.7 [5]): 18.9 µM

CC(C)(C)OC(=O)CC(=O)Nc1nc2c(s1)C[C@]1(C)[C@H]3C[C@@H](O)[C@@H]4C([C@]5(C)CC[C@@H](C(C)(C)O)O5)CC[C@@]4(C)[C@]3(C)CC[C@H]1C2(C)C (some centres undefined)
viability at 24 h, 40 µM [1]: > 90%
inhibition at 5 µM (RAW264.7 [2]): 24.5%
inhibition at 10 µM (RAW264.7 [3]): 40.7%
inhibition at 20 µM (RAW264.7 [4]): 67.2%
IC50 (RAW264.7 [5]): 9.17 µM

CC(C)(O)[C@H]1CC[C@@](C)(C2CC[C@]3(C)[C@@H]2[C@H](O)C[C@@H]2[C@@]4(C)Cc5sc(NC(=O)OC(F)(F)F)nc5C(C)(C)[C@@H]4CC[C@]23C)O1 (some centres undefined)
viability at 24 h, 40 µM [1]: > 90%
inhibition at 5 µM (RAW264.7 [2]): 8.01%
inhibition at 10 µM (RAW264.7 [3]): 21.2%
inhibition at 20 µM (RAW264.7 [4]): 37.5%
IC50 (RAW264.7 [5]): 35.6 µM

Cc1nnc(NC(=O)CCC(=O)O[C@H]2CC[C@]3(C)[C@H]4C[C@@H](O)[C@@H]5C([C@]6(C)CC[C@H](C(C)(C)O)O6)CC[C@@]5(C)[C@]4(C)CC[C@H]3C2(C)C)s1 (some centres undefined)
Activity (RAW264.7 [6]): Toxic

CC(C)(C)OC(=O)CCCC(=O)Nc1nc2c(s1)C[C@]1(C)[C@H]3C[C@@H](O)[C@@H]4C([C@]5(C)CC[C@@H](C(C)(C)O)O5)CC[C@@]4(C)[C@]3(C)CC[C@H]1C2(C)C (some centres undefined)
viability at 24 h, 40 µM [1]: > 90%
inhibition at 5 µM (RAW264.7 [2]): 20.4%
inhibition at 10 µM (RAW264.7 [3]): 41.2%
inhibition at 20 µM (RAW264.7 [4]): 60.4%
IC50 (RAW264.7 [5]): 11.6 µM

CC(C)(O)[C@@H]1CC[C@@](C)(C2CC[C@]3(C)[C@@H]2[C@H](O)C[C@@H]2[C@@]4(C)CC[C@H](O)C(C)(C)[C@@H]4CC[C@]23C)O1 (some centres undefined)
inhibition at 5 µM (RAW264.7 [2]): 5.58%
inhibition at 10 µM (RAW264.7 [3]): 8.85%
inhibition at 20 µM (RAW264.7 [4]): 22.3%
IC50 (RAW264.7 [5]): 30.4 µM

CC(C)(C)OC(=O)NCCCCCCCC(=O)Nc1nc2c(s1)C[C@]1(C)[C@H]3C[C@@H](O)[C@@H]4C([C@]5(C)CC[C@@H](C(C)(C)O)O5)CC[C@@]4(C)[C@]3(C)CC[C@H]1C2(C)C (some centres undefined)
viability at 24 h, 40 µM [1]: > 90%
inhibition at 5 µM (RAW264.7 [2]): 19.9%
inhibition at 10 µM (RAW264.7 [3]): 29.9%
inhibition at 20 µM (RAW264.7 [4]): 39.4%
IC50 (RAW264.7 [5]): 33.1 µM

CC(C)(O)[C@H]1CC[C@@](C)(C2CC[C@]3(C)[C@@H]2[C@H](O)C[C@@H]2[C@@]4(C)CC[C@H](O)C(C)(C)[C@@H]4CC[C@]23C)O1 (some centres undefined)
inhibition at 5 µM (RAW264.7 [2]): 13%
inhibition at 10 µM (RAW264.7 [3]): 19.7%
inhibition at 20 µM (RAW264.7 [4]): 30.3%
IC50 (RAW264.7 [5]): 20.8 µM

CC(C)(O)[C@@H]1CC[C@@](C)(C2CC[C@]3(C)[C@@H]2[C@H](O)C[C@@H]2[C@@]4(C)CC[C@H](OC(=O)CCC(=O)Nc5nnc(Cl)s5)C(C)(C)[C@@H]4CC[C@]23C)O1 (some centres undefined)
viability at 24 h, 40 µM [1]: > 90%
inhibition at 5 µM (RAW264.7 [2]): 32.5%
inhibition at 10 µM (RAW264.7 [3]): 43.4%
inhibition at 20 µM (RAW264.7 [4]): 45.7%
IC50 (RAW264.7 [5]): 29.8 µM
